The values that follow come from patent US20060178318A1, “Use of aurora kinase inhibitors for reducing the resistance of cancer cells” (priority 2003, published 2006).

Experiment [1] relates to HeLa cells. Description: Taxol sensitivity assay (apoptosis, propidium iodide staining and flow cytometry). The note with it: Aurora-A-overexpressing vs mock-transfected HeLa cells, different concentrations of Taxol for 72 hr, FIG. 1. In kind it is cell-based, human. In general terms: A flow cytometer gives signals particle by particle.
Method: 2×10^5 cells in complete growth medium were plated in a 35 mm dish before transfection using the Gene Juice transfection reagent (Novagen, United Kingdom) according to the manufacturer's protocol. GFP-expressing cells were flow sorted as before, 48 hr after transfection. Equal numbers of flow sorted mock-transfected or Aurora-A-transfected HeLa cell were plated on 6 well plates in DMEM (Life Technologies, Grand Island, N.Y.) containing 10% FBS. Taxol (Sigma Chemical Co.) at different concentrations was added fresh from a stock prepared in DMSO. The cells were exposed to the drug for 72 hr after which they were analyzed by propidium iodide staining and flow cytometry as described earlier. Cells collected at the indicated time points were centrifuged at 1000 rpm for 5 min at room temperature. 1×10^6 cells were resuspended in 0.5 ml PBS, fixed by adding 4.5 ml of ice-cold 70% ethanol, and incubated overnight in fixative at 4° C. Before analysis, fixed cells were washed in PBS and incubated with propidium iodide staining solution (0.1% Triton.X-100, PBS; 0.02 mg/ml propidium iodide; 0.2 mg/ml RnaseA) for 30 min at room temperature. […] Ten thousand events were analyzed per sample. […] The percentage of apoptotic cells was then measured using propidium iodide staining and flow cytometry to enumerate the sub G1 (<2N DNA content) population.
In experiment [2] the test system is HeLa cells. As to conditions: stated as known; cited from earlier work.
The test system of another experiment is tubulin. The note with it: compared with paclitaxel; cited from earlier work.

For `CC(=O)O[C@H]1C(=O)[C@@]2(C)[C@H]([C@H](OC(=O)c3ccccc3)[C@]3(O)C[C@H](OC(=O)[C@H](O)[C@@H](NC(=O)c4ccccc4)c4ccccc4)C(C)=C1C3(C)C)[C@]1(OC(C)=O)CO[C@@H]1C[C@@H]2O` [paclitaxel], the “resistance to paclitaxel-induced apoptosis (percentage of apoptotic cells, sub G1 population)” value in the experiment with HeLa cells [1] is reported as “striking increase in resistance”. In addition, the “sensitivity of HeLa cells to Taxol-induced apoptosis” value in the experiment on HeLa cells [2] is reported as “highly sensitive”.
Regarding A-nor-paclitaxel, the “tubulin-assembly activity relative to paclitaxel” value in the experiment with tubulin is listed as “only three times less than that of paclitaxel”.
